Molecules are shown by their SMILES.

Assay [1] has as its system WT:P1090Q TRPM3 mixture. Briefly: Whole-cell patch clamp, HEK293T cells co-transfected with WT and P1090Q TRPM3 (1:1). The assay is classed as cell-based, human. The settings on record: WT:P1090Q 1:1; Clt 10 µM, PS 40 µM. From the text:
(§1) Considering that all reported DEE patients were heterozygous for the TRPM3 substitutions ([Dyment et al., 2019]), and that TRPM3 is functional as a tetramer, it can be expected that patient cells express a mixture of WT and mutant channel subunits, potentially leading to the formation of heteromultimeric channels with variable stoichiometry. To mimic the heterozygous condition in vitro, we performed a limited number of experiments in cells co-transfected with a mixture of cDNA encoding WT and mutant TRPM3 in a 1:1 ratio.
(§2) HEK293T cells ([Graham et al., 1977]) were cultured as described previously ([Vriens et al., 2007]) and used up in passage number 14. HEK293T cells were tested for the lack of mycoplasma and transiently transfected with 2 µg of DNA using TransIT transfection reagent (Mirus) 36–48 hr before the measurements. In case of co-cultures a ratio of 1:1 between hTRPM3-YFP WT and mutants-YFP DNA was used.
(§3) Standard whole-cell patch-clamp recordings were performed with an EPC-10 amplifier and the PatchMasterPro Software (HEKA Elektronik, Lambrecht, Germany). Current measurements were performed at a sampling rate of 20 kHz and currents were digitally filtered at 2.9 kHz. In all measurements, 70% of the series resistance was compensated. […]

Assay [2] relates to WT:V990M TRPM3 mixture. Briefly: Whole-cell patch clamp, HEK293T cells co-transfected with WT and V990M TRPM3 (1:1). The format is cell-based, human. The settings on record: WT:V990M 1:1; Clt 10 µM.
Text: as §1, §2, §3
On the technique in general: The patch-clamp technique gives a direct electrical read-out from membranes.

The target in assay [3] is T1, TRPM3 P1090Q mutant (Homo sapiens, UniProt Q9HCF6, P1115Q).
T1 sequence (Q9HCF6 1-1325 isoform Q9HCF6-10 P1090Q): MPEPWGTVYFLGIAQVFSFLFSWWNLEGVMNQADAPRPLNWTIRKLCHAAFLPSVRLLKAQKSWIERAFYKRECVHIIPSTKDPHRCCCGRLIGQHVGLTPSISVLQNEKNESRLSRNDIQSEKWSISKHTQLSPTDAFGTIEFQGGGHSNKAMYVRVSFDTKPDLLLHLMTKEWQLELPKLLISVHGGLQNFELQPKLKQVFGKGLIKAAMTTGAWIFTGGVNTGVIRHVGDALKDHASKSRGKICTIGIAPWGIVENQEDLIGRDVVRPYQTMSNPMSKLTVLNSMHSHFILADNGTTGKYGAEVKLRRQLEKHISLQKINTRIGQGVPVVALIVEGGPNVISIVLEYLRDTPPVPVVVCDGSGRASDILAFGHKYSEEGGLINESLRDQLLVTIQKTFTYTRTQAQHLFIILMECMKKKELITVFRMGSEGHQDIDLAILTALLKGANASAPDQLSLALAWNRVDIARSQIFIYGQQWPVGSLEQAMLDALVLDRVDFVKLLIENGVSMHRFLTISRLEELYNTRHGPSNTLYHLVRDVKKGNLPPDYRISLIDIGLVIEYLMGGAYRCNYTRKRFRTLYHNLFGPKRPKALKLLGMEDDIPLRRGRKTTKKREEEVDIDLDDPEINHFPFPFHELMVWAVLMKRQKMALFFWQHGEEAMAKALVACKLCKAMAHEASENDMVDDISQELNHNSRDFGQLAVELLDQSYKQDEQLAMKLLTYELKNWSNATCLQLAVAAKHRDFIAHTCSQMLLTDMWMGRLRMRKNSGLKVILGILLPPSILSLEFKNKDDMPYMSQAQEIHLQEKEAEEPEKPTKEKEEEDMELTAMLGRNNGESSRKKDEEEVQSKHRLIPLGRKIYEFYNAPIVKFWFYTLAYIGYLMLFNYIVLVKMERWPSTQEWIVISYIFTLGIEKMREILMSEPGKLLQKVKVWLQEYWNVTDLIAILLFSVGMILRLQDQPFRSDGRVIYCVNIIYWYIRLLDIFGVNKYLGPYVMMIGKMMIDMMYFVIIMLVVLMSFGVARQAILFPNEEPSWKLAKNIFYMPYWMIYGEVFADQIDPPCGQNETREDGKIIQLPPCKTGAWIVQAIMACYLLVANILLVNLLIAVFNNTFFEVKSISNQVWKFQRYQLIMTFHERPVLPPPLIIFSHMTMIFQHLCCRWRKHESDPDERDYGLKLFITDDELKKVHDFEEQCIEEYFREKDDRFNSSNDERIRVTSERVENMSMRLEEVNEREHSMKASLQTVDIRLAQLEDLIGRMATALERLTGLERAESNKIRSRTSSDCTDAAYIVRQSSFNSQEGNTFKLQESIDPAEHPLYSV
The protocol:
as §2
All mutants were obtained by the standard PCR overlap extension method using hTRPM3 directly linked to YFP from pCAGGS/IRES-GFP vector ([Vriens et al., 2007]). Accuracy of all mutant sequences was verified by sequencing of the entire DNA constructs.
Standard whole-cell patch-clamp recordings were performed with an EPC-10 amplifier and the PatchMasterPro Software (HEKA Elektronik, Lambrecht, Germany). Current measurements were performed at a sampling rate of 20 kHz and currents were digitally filtered at 2.9 kHz. In all measurements, 70% of the series resistance was compensated. The standard internal solution contained (in mM): 100 CsAsp, 45 CsCl, 10 EGTA, 10 HEPES, 1 MgCl2 (pH 7.2 with CsOH) or 140 potassium gluconate, 5 EGTA, 1 MgCl2, 10 HEPES and 2 NaATP (pH 7.3 with CsOH) for the measurements of Gβγ mediated inhibition and the standard extracellular solution contained (in mM): 150 NaCl, 1 MgCl2, 10 HEPES (pH 7.4 with NaOH). The standard patch pipette resistance was between 2 MΩ and 4 MΩ when filled with pipette solution. In experiments allowing Ca^2+-dependent desensitization of TRPM3, Mg^2+ was replaced by Ca^2+ in the extracellular solution, and Cs^+ was replaced by Na^+ in the pipette solution. […] The chemical ligands were dissolved in bath solution from a stock diluted in DMSO.

Take `Clc1ccccc1C(c1ccccc1)(c1ccccc1)n1ccnc1` [Clt, clotrimazole]: in assay [1], the “Effect of pre-incubation on PS responses (whole-cell currents)” value is recorded as “first a potentiation of the PS responses by pre-incubation of Clt, followed by a time-dependent current inhibition”. Also, the figures for the “Activation of whole-cell currents in the absence of PS” value in assay [2] and in assay [3] (Clt 10 µM) were “activated robust currents” and “did not activate currents”, respectively. The “Effect on the response to PS (whole-cell currents)” value in assay [3] (Clt 10 µM, PS 40 µM) is reported as “inhibited the response to PS”.
`CCC1(c2ccccc2)C(=O)NCNC1=O` [primidone]: in assay [3] (primidone 25 µM, PS 40 µM, ±80 mV, cells co-expressing µ-opioid receptor), the “Inhibition of PS-activated inward and outward currents” value is on record as “full inhibition”.
